Measured values: patent US8394395B2, “Use of a cosmetic composition for the care of fatty skin” (Laboratories Clarins, priority 2006, dated 2013)

Columns and labels:
[1] = tested on: human sebocytes (Hs 917.T, ATCC line No. CRL-7669); assay: Sebocyte proliferation, M.T.T. colorimetric test; type: cell-based; settings: 72 hours of culture, versus reference medium
Description: A line of human sebocytes (Hs 917.T, ATCC line No. CRL-7669) was cultured in Dulbecco's modified Eagle's medium with 4.5 g/l of D-glucose and 10% of fetal calf serum. These adherent cells have a polygonal morphology and large nuclei.
Proliferation was evaluated by means of a validated colorimetric test, the M.T.T. test (dimethyl thiazolyl diphenyl tetrazolium) (according to Mosmann, J. Immunol. Meth. 1983 65: 55-63). This compound is metabolized by the mitochondria, to give blue formazan crystals, the amount of which depends directly on the activity of the mitochondrial succinate dehydrogenase enzyme and on the number of living cells.
As a result of this, the proliferation is measured by colorimetery (570 nm).
The proliferation was therefore evaluated according to the following conditions: • sebocytes in reference medium; • sebocytes cultured in the presence of the reference medium supplemented with chrysin at the 2 concentrations of 10^−3% and 5×10^−3%.
For each condition performed in sextuplet, the proliferation was analyzed after 72 hours of culture.

[2] = tested on: human sebocytes (Hs 917.T, ATCC line No. CRL-7669); assay: Sebocyte viability (MTT exclusion test); type: cell-based; settings: chrysin concentrations of 10^−3% and 5×10^−3%; compared with conventional culture medium
Description: A line of human sebocytes (Hs 917.T, ATCC line No. CRL-7669) was cultured in Dulbecco's modified Eagle's medium with 4.5 g/l of D-glucose and 10% of fetal calf serum. These adherent cells have a polygonal morphology and large nuclei. Firstly, we verified the viability (MTT exclusion test) of the sebocytes in the presence of chrysin at various concentrations, in comparison with their conventional culture medium.

O=c1cc(-c2ccccc2)oc2cc(O)cc(O)c12 [chrysin, 5,7-dihydroxyflavone]
difference in proliferation of human sebocytes in culture ([1]; chrysin concentration 5×10^−3%): −18.4% | difference in proliferation of human sebocytes in culture ([1]; chrysin concentration 10^−3%): −10.5% | cytotoxicity on sebocytes (viability) [2]: did not induce any cytotoxicity
